Data published in patent US20220184071A1, “GEPOTIDACIN FOR USE IN THE TREATMENT OF BACTERIAL URINARY TRACT INFECTIONS” (GlaxoSmithKline Intellectual Property Development Limited, priority 2019, published 2022).
Converted amounts (≈) assume the structure as drawn. Read-outs that look alike come from different tables or passages of the source. Marks after values point to notes of the source that are not given here.

Key:
E. coli = assay: Phase IIa baseline uropathogen susceptibility testing (CLSI broth microdilution); assay type: cell-based, Escherichia coli; conditions: baseline visit
Method: (§1) This phase IIa single center study evaluated the safety, tolerability, pharmacokinetics, and efficacy of oral gepotidacin 1500 mg BID for 5 days in female subjects with acute cystitis. Clean catch mid-stream urine specimens were obtained for quantitative culture by standard methods. Urine samples were taken from all participants pre-treatment (baseline) and at all post-baseline visits. All urine samples were sent to a central laboratory (PPD Global Clinical Laboratories, Highland Heights, Ky., USA) for Gram stain, quantitative culture, pathogen identification and susceptibility testing. See FIG. 1 for participant disposition and study outline.
(§2) Susceptibility testing by CLSI broth microdilution and gradient diffusion (fosfomycin only) was conducted (CLSI, 2015, Methods for dilution antimicrobial susceptibility tests for bacteria that grow aerobically; approved standard-tenth edition; and CLSI, 2018. Performance Standards for Antimicrobial Susceptibility Testing; Twenty-seventh Informational Supplement M100-S28). Inclusion in the microbiological intent-to-treat population (micro-ITT), required growth of a qualifying baseline uropathogen (≥10^5 CFU/mL). See FIG. 2 for the baseline algorithm.

K. pneumoniae = assay: as above; assay type: cell-based, Klebsiella pneumoniae; conditions: baseline isolate
Method: as §1, §2

C. koseri = assay: as above; assay type: cell-based, Citrobacter koseri; conditions: baseline isolate
Method: as §1, §2

[1] = test system: Staphylococcus saprophyticus; assay: MIC by CLSI broth microdilution in CAMHB and urine, Example 1 Method 3; assay type: cell-based; conditions: for Mean MIC: n = 6
Method: Antimicrobial activity was determined by broth microdilution using the CLSI recommended procedure.
(§3) The compounds were tested in serial two-fold dilutions and the minimum inhibitory concentration (MIC) was determined as the lowest concentration of the compound that inhibited visible growth.
In particular, gepotidacin was tested against 6 strains of Staphylococcus saprophyticus from the collection of isolates at Laboratory Specialists, Inc., Westlake, Ohio.
Levofloxacin was included as the comparator in the study to determine the effect of urine on the in vitro activity of gepotidacin against Staphylococcus saprophyticus. MICs were determined by broth microdilution according CLSI methods.
(§4) The data shown in the table below are results from an in vitro study conducted with the same S. saprophyticus isolates described above, to determine the effect of urine on the in vitro activity of gepotidacin and levofloxacin against S. saprophyticus. Study strains were tested for MICs (minimum inhibitory concentrations) according to reference CLSI broth microdilution method using cation-adjusted Mueller Hinton Broth (CAMHB) and with the addition of 25%, 50% and 100% urine (not pH adjusted, pH 6.42) and 100% urine (pH adjusted, 7.31 and 8.07).

[2] = test system: Staphylococcus epidermidis; assay: MIC by CLSI broth microdilution in CAMHB and urine, Example 5 Method 2; assay type: cell-based; conditions: for Mean MIC: n = 4
Method: as §3
In particular, gepotidacin was tested against 4 strains of Staphylococcus epidermidis from the collection of isolates at Laboratory Specialists, Inc., Westlake, Ohio.
Levofloxacin was included as the comparator in the study to determine the effect of urine on the in vitro activity of gepotidacin against Staphylococcus epidermidis. MICs were determined by broth microdilution according CLSI methods.
as §4, with “epidermidis” for “saprophyticus”, “epidermidis.” for “saprophyticus.”, “MICs” for “MICs (minimum inhibitory concentrations)”

[3] = test system: all the gram-negative anaerobe organisms combined; assay: MIC by CLSI agar dilution, Example 6 Method 1; assay type: cell-based; conditions: all gram-negative anaerobes combined; for MIC90: read-out: overall MIC90
Method: (§5) Antimicrobial activity was determined by agar dilution using the Clinical and Laboratory Standards Institute (CLSI) recommended procedure.
(§6) The compounds were tested in serial two-fold dilutions and the minimum inhibitory concentration (MIC) was determined as the lowest concentration of the compound that inhibited visible growth. Gepotidacin was tested against 333 gram-negative anaerobic and 203 gram-positive anaerobic isolates collected from clinical samples in North America and Europe from 2000 to 2017; the majority collected from 2013 to 2016.
(§7) Ceftriaxone, clindamycin, imipenem, metronidazole, moxifloxacin and piperacillin/tazobactam were included as comparators.

[4] = test system: gram-positive anaerobe organisms combined; assay: MIC by CLSI agar dilution, Example 6 Method 1; assay type: cell-based; conditions: gram-positive anaerobes combined; for MIC90: read-out: overall MIC90
Method: as §5, §6, §7

qualifying uropathogens = assay: Phase IIa baseline uropathogen susceptibility testing (CLSI broth microdilution); assay type: cell-based
Method: as §1, §2

viridans streptococci = assay: MIC by CLSI broth microdilution, Example 5 Method 1; assay type: cell-based; conditions: 105 isolates
Method: Gepotidacin was tested against 101 coagulase-negative staphylococci and 105 viridans streptococci in serial two-fold dilutions and the minimum inhibitory concentration (MIC) was determined as the lowest concentration of the compound that inhibited visible growth. All of the clinical isolates were collected in 2009-2012 from patient infections from North America, Europe, Latin America and Asia-Pacific medical centers and were mainly obtained from patients with documented nosocomial and community-acquired respiratory tract infections, bloodstream infections and skin and skin structure infections. Ceftriaxone, meropenem, penicillin, levofloxacin, moxifloxacin and linezolid were included as comparators when testing the viridans streptococci isolates. Oxacillin, levofloxacin, moxifloxacin and linezolid, were included as comparators when testing the coagulase-negative staphylococci isolates. MICs were determined by broth microdilution according to CLSI methods.

[5] = Escherichia coli, Participant #2 (E. coli), read-out: MIC
[6] = Escherichia coli, Participant #3 (E. coli), read-out: MIC
[7] = Escherichia coli, Participant #4 (E. coli), read-out: MIC
[8] = Escherichia coli, Participant #5 (E. coli, MDR and fluoroquinolone-resistant), read-out: MIC
[9] = Escherichia coli, Participant #6 (E. coli, MDR), read-out: MIC

CC1(C)S[C@@H]2[C@H](NC(=O)[C@H](N)c3ccccc3)C(=O)N2[C@H]1C(=O)O [Ampicillin]
MIC (E. coli; [5]): > 64 µg/mL | MIC (E. coli; [6]): 2 µg/mL (≈ 5.72 µM) | MIC (E. coli; [7]): 1 µg/mL (≈ 2.86 µM) | MIC (E. coli; [8]): > 64 µg/mL | MIC (E. coli; [9]): > 64 µg/mL | Susceptibility of the qualifying uropathogen (K. pneumoniae): resistant | Susceptibility of the qualifying uropathogen (C. koseri): resistant

Cc1nnc(SCC2=C(C(=O)O)N3C(=O)[C@@H](NC(=O)Cn4cnnn4)[C@H]3SC2)s1 [Cefazolin]
MIC (E. coli; [5]): 2 µg/mL (≈ 4.4 µM) | MIC (E. coli; [6]): 4 µg/mL (≈ 8.8 µM) | MIC (E. coli; [7]): 2 µg/mL (≈ 4.4 µM) | MIC (E. coli; [8]): 4 µg/mL (≈ 8.8 µM) | MIC (E. coli; [9]): 32 µg/mL (≈ 70.4 µM)

C[C@H]1COc2c(N3CCN(C)CC3)c(F)cc3c(=O)c(C(=O)O)cn1c23 [Levofloxacin, reference compound]
Mean Dilution Difference ([1]; 25% Urine (pH 7.09) vs CAMHB): 0.50 | Mean difference ([1]; 25% Urine (pH 7.09) vs CAMHB): 0.33 | N(%) ± 1 dilution ([1]; 25% Urine (pH 7.09) vs CAMHB): 6 (100%) | N(%) ± 2 dilution ([1]; 25% Urine (pH 7.09) vs CAMHB): 6 (100%) | Mean MIC ([1]; 25% Urine (pH 7.09)): 1.12 µg/mL | Mean Dilution Difference ([1]; 50% Urine (6.99) vs CAMHB): 0.17 | Mean difference ([1]; 50% Urine (6.99) vs CAMHB): 0.10 | N(%) ± 1 dilution ([1]; 50% Urine (6.99) vs CAMHB): 6 (100%) | N(%) ± 2 dilution ([1]; 50% Urine (6.99) vs CAMHB): 6 (100%) | Mean MIC ([1]; 50% Urine (6.99)): 0.89 µg/mL | Mean Dilution Difference ([1]; 100% Urine (pH 6.42) vs CAMHB): 0.67 | Mean difference ([1]; 100% Urine (pH 6.42) vs CAMHB): 0.47 | N(%) ± 1 dilution ([1]; 100% Urine (pH 6.42) vs CAMHB): 6 (100%) | N(%) ± 2 dilution ([1]; 100% Urine (pH 6.42) vs CAMHB): 6 (100%) | Mean MIC ([1]; 100% Urine (pH 6.42)): 1.26 µg/mL | Mean Dilution Difference ([1]; 100% Urine (pH 7.31) vs CAMHB): 1.50 | Mean difference ([1]; 100% Urine (pH 7.31) vs CAMHB): 1.45 | N(%) ± 1 dilution ([1]; 100% Urine (pH 7.31) vs CAMHB): 2 (33.3%) | N(%) ± 2 dilution ([1]; 100% Urine (pH 7.31) vs CAMHB): 6 (100%) | Mean MIC ([1]; 100% Urine (pH 7.31)): 2.24 µg/mL | Mean Dilution Difference ([1]; 100% Urine (pH 8.07) vs CAMHB): 1.17 | Mean difference ([1]; 100% Urine (pH 8.07) vs CAMHB): 0.99 | N(%) ± 1 dilution ([1]; 100% Urine (pH 8.07) vs CAMHB): 5 (83.3%) | N(%) ± 2 dilution ([1]; 100% Urine (pH 8.07) vs CAMHB): 6 (100%) | Mean MIC ([1]; 100% Urine (pH 8.07)): 1.78 µg/mL | Mean MIC ([1]; CAMHB (ref. method, pH 7.2)): 0.79 µg/mL | Mean Dilution Difference ([2]; 25% Urine (pH 7.09) vs CAMHB): 0.25 | Mean difference ([2]; 25% Urine (pH 7.09) vs CAMHB): 0.03 | N(%) ± 1 dilution ([2]; 25% Urine (pH 7.09) vs CAMHB): 4 (100%) | N(%) ± 2 dilution ([2]; 25% Urine (pH 7.09) vs CAMHB): 4 (100%) | Mean MIC ([2]; 25% Urine (pH 7.09)): 0.17 µg/mL | Mean Dilution Difference ([2]; 50% Urine (6.99) vs CAMHB): 0.25 | Mean difference ([2]; 50% Urine (6.99) vs CAMHB): 0.03 | N(%) ± 1 dilution ([2]; 50% Urine (6.99) vs CAMHB): 4 (100%) | N(%) ± 2 dilution ([2]; 50% Urine (6.99) vs CAMHB): 4 (100%) | Mean MIC ([2]; 50% Urine (6.99)): 0.17 µg/mL | Mean Dilution Difference ([2]; 100% Urine (pH 6.42) vs CAMHB): 0.51 | Mean difference ([2]; 100% Urine (pH 6.42) vs CAMHB): 0.06 | N(%) ± 1 dilution ([2]; 100% Urine (pH 6.42) vs CAMHB): 4 (100%) | N(%) ± 2 dilution ([2]; 100% Urine (pH 6.42) vs CAMHB): 4 (100%) | Mean MIC ([2]; 100% Urine (pH 6.42)): 0.21 µg/mL | Mean Dilution Difference ([2]; 100% Urine (pH 7.31) vs CAMHB): 0.78 | Mean difference ([2]; 100% Urine (pH 7.31) vs CAMHB): 0.10 | N(%) ± 1 dilution ([2]; 100% Urine (pH 7.31) vs CAMHB): 3 (75%) | N(%) ± 2 dilution ([2]; 100% Urine (pH 7.31) vs CAMHB): 4 (100%) | Mean MIC ([2]; 100% Urine (pH 7.31)): 0.25 µg/mL | Mean Dilution Difference ([2]; 100% Urine (pH 8.07) vs CAMHB): 1.78 | Mean difference ([2]; 100% Urine (pH 8.07) vs CAMHB): 0.35 | N(%) ± 1 dilution ([2]; 100% Urine (pH 8.07) vs CAMHB): 2 (50%) | N(%) ± 2 dilution ([2]; 100% Urine (pH 8.07) vs CAMHB): 3 (75%) | Mean Dilution Difference ([2]; 100% Urine (pH 8.07) vs CAMHB, listed as levofloxacin): approximately 1.8 | Mean MIC ([2]; 100% Urine (pH 8.07)): 0.5 µg/mL | Mean MIC ([2]; CAMHB (ref. method, pH 7.2)): 0.15 µg/mL

CO/N=C(\C(=O)N[C@@H]1C(=O)N2C(C(=O)O)=C(CSc3nc(=O)c(=O)[nH]n3C)CS[C@H]12)c1csc(N)n1 [ceftriaxone]
MIC90 [3]: 512 µg/mL | MIC90 [4]: 256 µg/mL

CCC[C@@H]1C[C@@H](C(=O)N[C@@H]([C@H]2O[C@H](SC)[C@H](O)[C@@H](O)[C@H]2O)[C@H](C)Cl)N(C)C1 [clindamycin]
MIC90 [3]: > 8 µg/mL | MIC90 [4]: > 8 µg/mL

C[C@@H]1O[C@@H]1P(=O)(O)O [fosfomycin]
Resistance among the baseline uropathogens recovered (qualifying uropathogens): None of the baseline uropathogens recovered were resistant

C[C@@H](O)[C@H]1C(=O)N2C(C(=O)O)=C(SCCN=CN)C[C@H]12 [imipenem]
MIC90 [3]: 0.5 µg/mL | MIC90 [4]: 8 µg/mL

C[C@@H](O)[C@H]1C(=O)N2C(C(=O)O)=C(S[C@@H]3CN[C@H](C(=O)N(C)C)C3)[C@H](C)[C@H]12 [meropenem]
Resistance among the baseline uropathogens recovered (qualifying uropathogens): None of the baseline uropathogens recovered were resistant | MIC90 (viridans streptococci): 0.25 µg/mL (≈ 0.652 µM)

Cc1ncc([N+](=O)[O-])n1CCO [metronidazole]
MIC90 [3]: 2 µg/mL | MIC90 [4]: 0.5 µg/mL

COc1c(N2C[C@@H]3CCCN[C@@H]3C2)c(F)cc2c(=O)c(C(=O)O)cn(C3CC3)c12 [moxifloxacin]
MIC90 [3]: 8 µg/mL | MIC90 [4]: > 8 µg/mL | MIC90 (viridans streptococci): 0.25 µg/mL (≈ 0.623 µM)

Trimethoprim-sulfamethoxazole
MIC (E. coli; Participant #2 (E. coli)): 0.03 µg/mL | MIC (E. coli; Participant #3 (E. coli)): 0.03 µg/mL | MIC (E. coli; Participant #4 (E. coli)): 0.03 µg/mL | MIC (E. coli; Participant #5 (E. coli, MDR and fluoroquinolone-resistant)): >8^b μg/mL | MIC (E. coli; Participant #6 (E. coli, MDR)): >8^b μg/mL

piperacillin/tazobactam
overall MIC90 [3]: 16 µg/mL | overall MIC90 [4]: 16 µg/mL | Resistance among the baseline uropathogens recovered (qualifying uropathogens): None of the baseline uropathogens recovered were resistant
